# Data: ChEMBL document CHEMBL5154757, “Phosphodiesters as GPR84 Antagonists for the Treatment of Ulcerative Colitis” (J Med Chem, 2022)
# Assays:
# [1] = molecular target: G-protein coupled receptor 84 (Homo sapiens, UniProt Q9NQS5); assay: Antagonist activity at human GPR84 expressed in HEK293 cells co-expressing Galpha16 assessed as reduction in 6-OAU induced intracellular calcium response preincubated for 10 mins followed by agonist addition and measured after 1 min by calcium mobilization assay; assay type: functional, cell-based
# Chain of G-protein coupled receptor 84 (Homo sapiens, UniProt Q9NQS5) (Q9NQS5 whole entry): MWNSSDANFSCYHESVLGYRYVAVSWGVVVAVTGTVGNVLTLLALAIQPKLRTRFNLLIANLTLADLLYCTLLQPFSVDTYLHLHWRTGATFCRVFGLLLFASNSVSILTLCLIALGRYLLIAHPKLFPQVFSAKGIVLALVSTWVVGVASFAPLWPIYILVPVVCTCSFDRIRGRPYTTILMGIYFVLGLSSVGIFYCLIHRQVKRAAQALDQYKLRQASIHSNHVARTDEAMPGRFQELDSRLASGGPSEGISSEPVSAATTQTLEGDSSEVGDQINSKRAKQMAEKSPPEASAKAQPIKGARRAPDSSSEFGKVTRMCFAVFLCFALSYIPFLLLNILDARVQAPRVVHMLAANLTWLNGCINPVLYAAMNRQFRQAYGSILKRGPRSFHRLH
# [2] = Tmax in CD-1 mouse at 5 mg/kg, po administered as single dose measured upto 24 hrs by LC-MS/MS analysis; assay type: ADME, organism-based; settings: in vivo
# [3] = Cmax in CD-1 mouse at 5 mg/kg, po administered as single dose measured upto 24 hrs by LC-MS/MS analysis; assay type: ADME, organism-based; design: time < 24 hrs, dose 5 mg/kg, route po; settings: in vivo
# [4] = MRT in CD-1 mouse at 2 mg/kg, iv administered as single dose measured upto 24 hrs by LC-MS/MS analysis; assay type: ADME, organism-based; settings: in vivo
# [5] = AUC(0 to infinity) in CD-1 mouse at 5 mg/kg, po administered as single dose measured upto 24 hrs by LC-MS/MS analysis; assay type: ADME, organism-based; design: time < 24 hrs, dose 5 mg/kg, route po; settings: in vivo
# [6] = AUC(0 to infinity) in CD-1 mouse at 2 mg/kg, iv administered as single dose measured upto 24 hrs by LC-MS/MS analysis; assay type: ADME, organism-based; design: time < 24 hrs, dose 2 mg/kg, route iv; settings: in vivo
# [7] = Half life in CD-1 mouse at 5 mg/kg, po administered as single dose measured upto 24 hrs by LC-MS/MS analysis; assay type: ADME, organism-based; settings: in vivo
# [8] = Half life in CD-1 mouse at 2 mg/kg, iv administered as single dose measured upto 24 hrs by LC-MS/MS analysis; assay type: ADME, organism-based; settings: in vivo
# [9] = Clearance in CD-1 mouse at 2 mg/kg, iv administered as single dose measured upto 24 hrs by LC-MS/MS analysis; assay type: ADME, organism-based; settings: in vivo
# [10] = MRT in CD-1 mouse at 5 mg/kg, po administered as single dose measured upto 24 hrs by LC-MS/MS analysis; assay type: ADME, organism-based; settings: in vivo
# [11] = Oral bioavailability in CD-1 mouse at 5 mg/kg administered as single dose measured upto 24 hrs by LC-MS/MS analysis; assay type: ADME, organism-based; settings: in vivo
# [12] = Volume of distribution at steady state in CD-1 mouse at 2 mg/kg, iv administered as single dose measured upto 24 hrs by LC-MS/MS analysis; assay type: ADME, organism-based; settings: in vivo, read-out: Vdss
# [13] = molecular target: G-protein coupled receptor 84 (Mus musculus, UniProt Q8CIM5); assay: Antagonist activity at mouse GPR84 expressed in HEK293 cells assessed as reduction in 6-OAU induced intracellular calcium response preincubated for 10 mins followed by agonist addition and measured after 1 min by calcium mobilization assay; assay type: functional, cell-based
# Chain of G-protein coupled receptor 84 (Mus musculus, UniProt Q8CIM5) (Q8CIM5 whole entry): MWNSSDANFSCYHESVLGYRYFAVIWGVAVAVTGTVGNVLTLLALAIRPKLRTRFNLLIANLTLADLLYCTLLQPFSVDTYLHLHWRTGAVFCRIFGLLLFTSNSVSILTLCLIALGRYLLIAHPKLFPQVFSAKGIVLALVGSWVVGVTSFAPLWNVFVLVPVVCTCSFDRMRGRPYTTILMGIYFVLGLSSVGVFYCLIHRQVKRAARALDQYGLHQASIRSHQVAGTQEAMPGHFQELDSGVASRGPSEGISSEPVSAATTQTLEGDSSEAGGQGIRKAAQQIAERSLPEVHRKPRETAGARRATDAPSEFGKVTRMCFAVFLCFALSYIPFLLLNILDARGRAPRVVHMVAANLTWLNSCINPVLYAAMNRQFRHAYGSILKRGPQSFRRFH
# [14] = molecular target: G-protein coupled receptor 84 (Mus musculus) (UniProt Q8CIM5); assay: Antagonist activity at GPR84 expressed in mouse bone marrow cells assessed as reduction in 6-OAU induced migration in neutrophils incubated for 90 mins by flow cytometry; assay type: functional, cell-based; settings: Bone marrow cell, filed as antagonist, dose 0.01-1 µM, DDE = dose-dependent effect
# Chain of G-protein coupled receptor 84 (Mus musculus) (Q8CIM5 whole entry): as above
# [15] = molecular target: G-protein coupled receptor 84 (Mus musculus) (UniProt Q8CIM5); assay: Antagonist activity at GPR84 expressed in mouse bone marrow cells assessed as reduction in 6-OAU/3-OH-C12 induced migration in monocytes incubated for 90 mins by flow cytometry; assay type: functional, cell-based; settings: Bone marrow cell, filed as antagonist, dose 0.01-1 µM, DDE = dose-dependent effect
# [16] = Drug distribution in DSS-induced ulcerative colitis mouse jejunum at 5 mg/kg, po administered as single dose measured upto 8 hrs by LC-MS/MS analysis; assay type: ADME, organism-based; settings: in vivo
# [17] = Drug distribution in DSS-induced ulcerative colitis mouse colon at 5 mg/kg, po administered as single dose measured upto 8 hrs by LC-MS/MS analysis; assay type: ADME, organism-based; settings: in vivo
# Mus musculus [18] = assay: Anti-colitis activity against DSS-induced ulcerative colitis mouse model assessed as attenuation of weight loss administered orally once daily for 7 consecutive days; assay type: functional, organism-based; settings: dose 25-100 mg/kg, route po, DDE = dose-dependent effect
# Mus musculus [19] = assay: Anti-colitis activity against DSS-induced ulcerative colitis mouse model assessed as attenuation of stool thinning administered orally once daily for 7 consecutive days; assay type: functional, organism-based; settings: dose 25-100 mg/kg, route po, DDE = dose-dependent effect
# Mus musculus [20] = assay: Anti-colitis activity against DSS-induced ulcerative colitis mouse model assessed as attenuation of rectal bleeding administered orally once daily for 7 consecutive days; assay type: functional, organism-based; settings: dose 25-100 mg/kg, route po, DDE = dose-dependent effect
# Mus musculus [21] = assay: Anti-colitis activity against DSS-induced ulcerative colitis mouse model assessed as reduction in DAI score administered orally once daily for 7 consecutive days; assay type: functional, organism-based; settings: dose 25-100 mg/kg, route po, DDE = dose-dependent effect
# [22] = molecular target: G-protein coupled receptor 84 (Mus musculus) (UniProt Q8CIM5); assay: Antagonist activity at GPR84 expressed in mouse bone marrow cells assessed as reduction in 3-OH-C12 induced migration in neutrophils incubated for 90 mins by flow cytometry; assay type: functional, cell-based; settings: Bone marrow cell, filed as antagonist, dose 0.01-1 µM, DDE = dose-dependent effect
# [23] = molecular target: G-protein coupled receptor 84 (Mus musculus) (UniProt Q8CIM5); assay: Antagonist activity at GPR84 expressed in mouse bone marrow cells assessed as reduction in 3-OH-C12 induced migration in monocytes incubated for 90 mins by flow cytometry; assay type: functional, cell-based; settings: Bone marrow cell, filed as antagonist, dose 0.01-1 µM, DDE = dose-dependent effect
# HEK293 = assay: Cytotoxicity against HEK293 cells assessed as inhibition of cell growth upto 100 uM measured after 24 hrs by ATPlite assay; assay type: toxicity, cell-based; settings: human, hek293, 24 h
# [24] = Drug distribution in C57 mouse liver at 3 mg/kg, iv administered as single dose measured upto 8 hrs by LC-MS/MS analysis; assay type: ADME, organism-based; settings: in vivo
# [25] = Drug distribution in C57 mouse duodenum at 5 mg/kg, po administered as single dose measured upto 8 hrs by LC-MS/MS analysis; assay type: ADME, organism-based; settings: in vivo
# [26] = Drug distribution in C57 mouse jejunum at 5 mg/kg, po administered as single dose measured upto 8 hrs by LC-MS/MS analysis; assay type: ADME, organism-based; settings: in vivo
# [27] = Drug distribution in C57 mouse ileum at 5 mg/kg, po administered as single dose measured upto 8 hrs by LC-MS/MS analysis; assay type: ADME, organism-based; settings: in vivo
# [28] = Drug distribution in C57 mouse colon at 5 mg/kg, po administered as single dose measured upto 8 hrs by LC-MS/MS analysis; assay type: ADME, organism-based; settings: in vivo
# Bone marrow cell = assay: Cytotoxicity against bone marrow cells (unknown origin) assessed as inhibition of cell growth upto 10 uM measured after 1.5 to 2 hrs by ATPlite assay; assay type: toxicity, cell-based; settings: time 1.5-2 hrs
# [29] = Mutagenecity in Salmonella typhimurium TA98 in presence of S9 fraction at 1000 ug by Ames test; assay type: toxicity, subcellular, Salmonella enterica subsp. enterica serovar Typhimurium; settings: dose 1000 µg
# [30] = Mutagenecity in Salmonella typhimurium TA98 in absence of S9 fraction at 1000 ug by Ames test; assay type: toxicity, Salmonella enterica subsp. enterica serovar Typhimurium; settings: in vivo; dose 1000 µg
# [31] = Mutagenecity in Salmonella typhimurium TA100 in presence of S9 fraction at 1000 ug by Ames test; assay type: toxicity, subcellular, Salmonella enterica subsp. enterica serovar Typhimurium; settings: dose 1000 µg
# [32] = Mutagenecity in Salmonella typhimurium TA100 in absence of S9 fraction at 1000 ug by Ames test; assay type: toxicity, Salmonella enterica subsp. enterica serovar Typhimurium; settings: in vivo; dose 1000 µg
smiles,measurement,setting,value
O=P(O)(Oc1ccccc1)Oc1ccccc1,IC50,[1],> 100000 nM
O=c1nc(OCC2COCCO2)cc2n1CCc1cc(OCc3ccccn3)ccc1-2 (stereo unspecified),IC50,[1],716 nM
COc1cccc2c1Sc1ccccc1C=C2OP(=O)([O-])OC1=Cc2ccccc2Sc2c(OC)cccc21.[Na+],Tmax,[2],1 h
same,Cmax,[3],43.6 ng/mL
same,MRT,[4],1.82 h
same,AUC(0-inf),[5],236 ng·h/mL
same,AUC(0-inf),[6],4640 ng·h/mL
same,half-life,[7],4.99 h
same,half-life,[8],5.59 h
same,clearance,[9],7.5 mL/min/kg
same,MRT,[10],7.41 h
same,bioavailability,[11],2.3%
same,Vd,[12],0.8 L/kg
O=P([O-])(OC1=Cc2ccccc2Sc2ccccc21)OC1=Cc2ccccc2Sc2ccccc21.[Na+],IC50,[13],454 nM
same,Tmax,[2],1.67 h
same,Cmax,[3],192 ng/mL
same,MRT,[4],0.932 h
same,AUC(0-inf),[5],562 ng·h/mL
same,AUC(0-inf),[6],1420 ng·h/mL
same,half-life,[7],1.62 h
same,half-life,[8],1.14 h
same,clearance,[9],23.7 mL/min/kg
same,MRT,[10],4.05 h
same,bioavailability,[11],15.7%
same,Vd,[12],1.31 L/kg
COP(=O)(OC1=Cc2ccccc2Sc2ccccc21)OC1=Cc2ccccc2Sc2ccccc21,IC50,[1],> 100000 nM
COc1cccc2c1Sc1cccc(F)c1C=C2OP(=O)([O-])OC1=Cc2c(F)cccc2Sc2c(OC)cccc21.[Na+],Tmax,[2],0.42 h
same,Cmax,[3],74.3 ng/mL
same,MRT,[4],1.89 h
same,AUC(0-inf),[5],178 ng·h/mL
same,AUC(0-inf),[6],7760 ng·h/mL
same,half-life,[7],1.91 h
same,half-life,[8],5.75 h
same,clearance,[9],4.33 mL/min/kg
same,MRT,[10],2.21 h
same,bioavailability,[11],0.91%
same,Vd,[12],0.5 L/kg
O=P(O)(CC1=Cc2ccccc2Sc2ccccc21)CC1=Cc2ccccc2Sc2ccccc21,IC50,[1],1930 nM
O=P([O-])(OC1=Cc2c(Cl)cccc2Sc2ccccc21)OC1=Cc2c(Cl)cccc2Sc2ccccc21.[Na+],IC50,[13],273 nM
same,Activity,[14],Dde
same,Activity,[15],Dde
same,Tmax,[2],2.67 h
same,Cmax,[3],81.8 ng/mL
same,MRT,[4],2.26 h
same,AUC(0-inf),[5],517 ng·h/mL
same,AUC(0-inf),[6],1710 ng·h/mL
same,half-life,[7],4.39 h
same,half-life,[8],5.12 h
same,clearance,[9],20.3 mL/min/kg
same,MRT,[10],7.09 h
same,bioavailability,[11],11.9%
same,Vd,[12],2.98 L/kg
same,Drug uptake,[16],Active
same,Drug uptake,[17],Active
same,Activity,Mus musculus [18],Dde
same,Activity,Mus musculus [19],Dde
same,Activity,Mus musculus [20],Dde
same,Activity,Mus musculus [21],Dde
same,Activity,[22],Dde
same,Activity,[23],Dde
same,Activity,HEK293,Non-Toxic
same,Drug uptake,[24],Active
same,Drug uptake,[25],Active
same,Drug uptake,[26],Active
same,Drug uptake,[27],Active
same,Drug uptake,[28],Active
same,Activity,Bone marrow cell,Non-Toxic
same,Activity,[29],Non-Toxic
same,Activity,[30],Non-Toxic
same,Activity,[31],Non-Toxic
same,Activity,[32],Non-Toxic
O=P(O)(O)OC1=Cc2ccccc2Sc2ccccc21,IC50,[1],> 100000 nM
O=c1nc(OC[C@@H]2COCCO2)cc2n1CCc1cc(C#CC3CC3)ccc1-2,Activity,[14],Dde
same,Activity,[15],Dde
same,Activity,[22],Dde
same,Activity,[23],Dde
